{"source": "patent US20180055844A1", "about": "(Celgene Corporation, priority 2011, published 2018)", "key": {"TNFα": {"test_system": "TNFα", "experiment": "LPS-induced TNFα", "assay_type": "cell-based"}, "DoHH-2 cells": {"test_system": "DoHH-2 cells", "experiment": "Cytotoxicity assay (3 day ATP production)", "assay_type": "cell-based", "settings": "Homo sapiens, 72 hours, read-out: DoHH2 (FL) GIC50", "procedure": "(§1) Cells line Farage, DOHH2 and Rec-1 were obtained from American Type Culture Collection (Manassas, Va., USA) Cytotoxicity assays were measured in 3 day ATP production assays as follows: The cells were plated in black/clear-bottom 96-well TC plates (BD Falcon, Cat #353948) at 3000 cells/75 μL (for DoHH-2 and Farage cells) or 6000 cells/75 μL (Rec-1 cells) media per well. […] Plates were then sealed with breathable sealing films (ISC BioExpress, Cat # T-2421-50) and placed in a 37° C., 5% CO2 humidified incubator for 72 hours. In addition, cells were seeded in a separate plate in the same manner as above, 25 μL medium in 1% DMSO was added to each well. This plate was immediately tested in the CellTiter-Glo Luminescent Cell Viability Assay (Promega, Cat # G7572) as 0 time point and the results were used to calculate GIC50 in the Farage and DOHH-2 cell experiments After 72 hours of incubation, 100 μL of CellTiter-Glo reagent were added to each well and incubated at room temperature with gentle shaking for 30 minutes. The plates were then analyzed for luminescence in a TopCount NXT Reader (Packard). Each well was counted for one second. Values for duplicate wells were averaged and then compared to the zero time point DMSO control (0% inhibition) to calculate the percentage inhibition of cell growth. Mean DOHH-2 GIC50 values and Farage GIC50 values were calculated from three experiments. Rec-1 IC50 values were calculated from two experiments."}, "Farage cells": {"test_system": "Farage cells", "experiment": "Cytotoxicity assay (3 day ATP production)", "assay_type": "cell-based", "settings": "72 hours, read-out: Farage (GCB-DLBCL) GIC50", "procedure": "as §1"}, "Rec-1 cells": {"test_system": "Rec-1 cells", "experiment": "Cytotoxicity assay (3 day ATP production)", "assay_type": "cell-based", "settings": "Homo sapiens, Rec1; 72 hours; read-out: REC1 (MCL) IC50", "procedure": "as §1"}, "[1]": {"test_system": "megakaryocyte progenitor cells", "experiment": "MK colonies (megakaryocyte progenitor cells)", "assay_type": "cell-based"}, "DoHH2": {"test_system": "DoHH2", "experiment": "Cell cycle analysis", "assay_type": "cell-based", "procedure": "(§2) Cells were treated with DMSO or an amount of a compound provided herein for 48 hours. Propidium iodide staining for cell cycle was performed using CycleTEST PLUS (Becton Dickinson) according to manufacturer's protocol. Following staining, cells were analyzed by a FACSCalibur flow cytometer using ModFit LT software (Becton Dickinson)."}, "WSU-DLCL2 [2]": {"test_system": "WSU-DLCL2", "experiment": "Cell cycle analysis", "assay_type": "cell-based", "procedure": "as §2"}, "[3]": {"experiment": "Proliferation assays with Rituxan (Chou-Talalay method)", "assay_type": "cell-based"}, "NCI-H929 MM xenograft": {"test_system": "NCI-H929 MM xenograft", "experiment": "NCI-H929 MM xenograft model", "assay_type": "in vivo", "settings": "day 19"}, "Karpas-1106P": {"test_system": "Karpas-1106P", "experiment": "5 day 3H thymidine incorporation assay", "assay_type": "cell-based", "settings": "Homo sapiens, PMBL", "excerpt": "(§3) Results of 3 independent experiments are shown (mean±SD) in FIG. 2. […] ABC-subtype cells appear more sensitive to the antiproliferative effect than other subtype cells including GCB-DLBCL and PMBL cells."}, "OCI-Ly10": {"test_system": "OCI-Ly10", "experiment": "5 day 3H thymidine incorporation assay", "assay_type": "cell-based", "settings": "Homo sapiens; OCI-Ly10, ABC subtype", "excerpt": "as §3"}, "OCI-Ly19": {"test_system": "OCI-Ly19", "experiment": "5 day 3H thymidine incorporation assay", "assay_type": "cell-based", "settings": "Homo sapiens; OCI-Ly19, GCB subtype", "excerpt": "as §3"}, "RIVA": {"test_system": "RIVA", "experiment": "5 day 3H thymidine incorporation assay", "assay_type": "cell-based", "settings": "ABC subtype", "excerpt": "as §3"}, "SUDHL4": {"test_system": "SUDHL4", "experiment": "5 day 3H thymidine incorporation assay", "assay_type": "cell-based", "settings": "Homo sapiens, SU-DHL-4; SUDHL4, GCB subtype", "excerpt": "as §3"}, "TMD8": {"test_system": "TMD8", "experiment": "5 day 3H thymidine incorporation assay", "assay_type": "cell-based", "settings": "Homo sapiens; TMD8, ABC subtype", "excerpt": "as §3"}, "U2932": {"test_system": "U2932", "experiment": "5 day 3H thymidine incorporation assay", "assay_type": "cell-based", "settings": "Homo sapiens; U2932, ABC subtype", "excerpt": "as §3"}, "WSU-DLCL2 [4]": {"test_system": "WSU-DLCL2", "experiment": "5 day 3H thymidine incorporation assay", "assay_type": "cell-based", "settings": "Homo sapiens, WSUDLCL2; WSU-DLCL2, GCB subtype", "excerpt": "as §3"}, "[5]": {"experiment": "Oral administration for 7 consecutive days in rat", "parameters": "species or system male CD-IGS rat", "settings": "in vivo", "procedure": "The NOAEL was determined to be 1000 mg/kg/day."}, "pRb, IRF4": {"test_system": "pRb, IRF4", "experiment": "Western blot of cell cycle regulators in H929 cells", "assay_type": "cell-based"}, "SK-HEP-1": {"test_system": "SK-HEP-1", "experiment": "Invasion of solid tumor cells", "assay_type": "cell-based", "settings": "Homo sapiens, SK-HEP1; SK-HEP-1 (VEGF), hepatocellular"}, "SNB-19": {"test_system": "SNB-19", "experiment": "Invasion of solid tumor cells", "assay_type": "cell-based", "settings": "Homo sapiens; SNB-19 (PDGF), glioblastoma"}, "U251": {"test_system": "U251", "experiment": "Invasion of solid tumor cells", "assay_type": "cell-based", "settings": "Homo sapiens, U-251; U251 (PDGF), glioblastoma"}, "HCT116": {"test_system": "HCT116", "experiment": "Solid tumor cell colony formation", "assay_type": "cell-based", "settings": "Homo sapiens, HCT-116"}, "OVCAR-3": {"test_system": "OVCAR-3", "experiment": "Solid tumor cell colony formation", "assay_type": "cell-based", "settings": "Homo sapiens"}, "HEP-G2": {"test_system": "HEP-G2", "experiment": "Solid tumor cell colony formation", "assay_type": "cell-based", "settings": "Homo sapiens, HepG2"}, "U87": {"test_system": "U87", "experiment": "Solid tumor cell colony formation", "assay_type": "cell-based", "settings": "Homo sapiens, U-87 MG"}, "MCF-7": {"test_system": "MCF-7", "experiment": "Solid tumor cell colony formation", "assay_type": "cell-based", "settings": "Homo sapiens, MCF7"}, "HUVEC": {"test_system": "HUVEC", "experiment": "HUVEC migration", "assay_type": "cell-based", "settings": "Homo sapiens"}}, "note": "Where two headings read alike, the source gives them in different places."}
{"smiles": "Cc1nc2cccc(N)c2c(=O)n1C1CCC(=O)NC1=O", "note": "(centres unmarked) [compound of Formula I, 3-(5-amino-2-methyl-4-oxo-4H-quinazolin-3-yl)-piperidine-2,6-dione]", "values": [{"measurement": "IC50", "setting": "TNFα", "result": 17, "unit": "nM"}, {"measurement": "IC50", "setting": "DoHH-2 cells", "result": 610, "unit": "nM"}, {"measurement": "IC50", "setting": "Farage cells", "result": 700, "unit": "nM"}, {"measurement": "IC50", "setting": "Rec-1 cells", "result": 470, "unit": "nM"}, {"measurement": "inhibition of megakaryocyte progenitor cells", "setting": "[1]; 10 μM", "result": "did not inhibit"}, {"measurement": "IC50", "setting": "[1]; read-out: Immature MK colonies IC50", "result": "> 10", "unit": "µM"}, {"measurement": "IC50", "setting": "[1]; read-out: Intermediate MK colonies IC50", "result": "> 10", "unit": "µM"}, {"measurement": "G1 arrest", "setting": "DoHH2", "result": "induced G1 arrest"}, {"measurement": "G1 arrest", "setting": "WSU-DLCL2 [2]", "result": "induced G1 arrest"}, {"measurement": "interaction with Rituxan in proliferation assays", "setting": "[3]", "result": "synergistically"}, {"measurement": "tumor growth inhibition", "setting": "NCI-H929 MM xenograft; 0.3 mg/kg", "result": 59, "unit": "%"}, {"measurement": "tumor growth inhibition", "setting": "NCI-H929 MM xenograft; 3 mg/kg", "result": 73, "unit": "%"}, {"measurement": "tumor growth inhibition", "setting": "NCI-H929 MM xenograft; 30 mg/kg", "result": 93, "unit": "%"}, {"measurement": "IC50", "setting": "Karpas-1106P", "result": "580 to 710", "unit": "nM"}, {"measurement": "IC50", "setting": "OCI-Ly10", "result": 8.5, "unit": "nM"}, {"measurement": "IC50", "setting": "OCI-Ly19", "result": "> 10", "unit": "µM"}, {"measurement": "IC50", "setting": "RIVA", "result": 4.3, "unit": "µM"}, {"measurement": "IC50", "setting": "SUDHL4", "result": "> 10", "unit": "µM"}, {"measurement": "IC50", "setting": "TMD8", "result": 440, "unit": "nM"}, {"measurement": "IC50", "setting": "U2932", "result": "110 to 120", "unit": "nM"}, {"measurement": "IC50", "setting": "WSU-DLCL2 [4]", "result": "790 to 2100", "unit": "nM"}, {"measurement": "NOAEL at 7 days", "setting": "[5]; oral, 7 consecutive days, male CD-IGS rat", "result": 1000, "unit": "mg/kg/day"}, {"measurement": "exposure versus dose", "setting": "[5]; rat", "result": "near dose proportional exposure increases"}, {"measurement": "phosphorylation of pRB", "setting": "pRb, IRF4", "result": "decreased"}, {"measurement": "total level of protein IRF4", "setting": "pRb, IRF4", "result": "decreased"}, {"measurement": "IC50", "setting": "SK-HEP-1", "result": 6.1, "unit": "nM"}, {"measurement": "IC50", "setting": "SNB-19", "result": 160, "unit": "nM"}, {"measurement": "IC50", "setting": "U251", "result": 3.7, "unit": "µM"}, {"measurement": "inhibition at 10 µM", "setting": "HCT116", "result": 13, "unit": "%"}, {"measurement": "inhibition at 10 µM", "setting": "OVCAR-3", "result": 18, "unit": "%"}, {"measurement": "inhibition at 10 µM", "setting": "HEP-G2", "result": 6.9, "unit": "%"}, {"measurement": "inhibition at 10 µM", "setting": "U87", "result": 2, "unit": "%"}, {"measurement": "inhibition at 10 µM", "setting": "MCF-7", "result": 1.4, "unit": "%"}, {"measurement": "inhibition at 1 µM", "setting": "HUVEC; read-out: inhibition of VEGF-induced migration", "result": 38, "unit": "%"}, {"measurement": "inhibition at 1 µM", "setting": "HUVEC; read-out: inhibition of bFGF-induced migration", "result": 28, "unit": "%"}]}
